Assay results published in patent US8889411B2, “Modulation of stem and progenitor cell differentiation, assays, and uses thereof” (Anthrogenesis Corporation, priority 2002, dated 2014).

Legend:
[1] = test system: human cord blood CD45+ cells; assay: Flow cytograms of cord blood CD45+ cells cultured 14 days with IL3, IL6, G-CSF, Epo and KL; type: cell-based; conditions: 5 μg/ml
Procedure: FIGS. 9(A-F). Flow cytograms. […] Cord blood CD45+ cells were cultured for 14 days with cytokines IL3, IL6, G-CSF, Epo and KL. Percentages indicated on each cytogram indicate the percentage of the cell population expressing a particular combination of markers. A. Control, immunoglobulin (Ig). B. Control, no compound added. C. DMSO (5 μg/ml). D. Thal (5 μg/ml). E. ACTIMID™ (5 μg/ml). F. REVIMID™ (5 μg/ml). X-axis: relative intensity of CD38 (FL1-H) staining. Y-axis: relative intensity of CD19 (FL2-H) staining. See Section 6.3 for details.
FIGS. 10(A-F). Flow cytograms. […] Cord blood CD45+ cells were cultured for 14 days with cytokines IL3, IL6, G-CSF, Epo and KL. Percentages indicated on each cytogram indicate the percentage of the cell population expressing a particular combination of markers. A. Control, immunoglobulin (Ig). B. Control, no compound added. C. DMSO (5 μg/ml). D. Thal (5 μg/ml). E. ACTIMID™ (5 μg/ml). F. REVIMID™ (5 μg/ml). X-axis: relative intensity of CXCR5 (FL1-H) staining. Y-axis: relative intensity of CD34 (FL2-H) staining. See Section 6.3 for details.

[2] = test system: Human Cord Blood CD34+ Cells; assay: FACS analysis of proliferation and differentiation of cord blood CD34+ cells cultured with IL3, G-CSF and Kit-ligand; type: cell-based; conditions: for CD11b+ Cell Population / CD34+CD38+ Cell Population / CD34+CD38− Cell Population: 7 days
Procedure: CB CD34+ cells were initiated at 4×10^4 cells/ml in a 24-well plate in 20% FCS IMDM (fetal calf serum/Iscove's Modified Dulbecco's Medium) supplemented with cytokines (1 L3, GCSF and Kit-ligand) (R&D Systems, Inc.). Thalidomide (Thal), ACTIMID™ or REVIMID™ were included in the culture at three different concentrations: 5 μg/ml, 1 μg/ml and 0.3 μg/ml. The same volumes of DMSO were used as controls. A negative control without, any compound was also used (indicated by “none” in FIGS. 3-7). Cells were cultured at 37° C. and 5% CO2 in a humidified incubator for 7 days. Cells were then harvested from each well.
The total cell number from each well was determined by counting in a CELL-DYN® 1700 (Abbott Diagnostics) and the expression of CXCR4, CD45, CD34, CD38, CD 1 lb and Gly-A expression was analyzed by FACS (fluorescence-activated cell sorting) staining (FIGS. 3-7).
CB cells from two different donors (CB2276 and CB2417) were cultured, assayed and analyzed separately (Table 1).

[3] = test system: cells derived from CD34+ progenitor cells; assay: Phagocytosis: FITC-dextran uptake (mannose receptor-mediated endocytosis); type: cell-based, human; conditions: compared to DMSO control
Procedure: Phagocytosis: The endocytic activity of the cells was analyzed by measuring FITC-dextran uptake. Cells were incubated with 1 mg/ml dextran-FITC (Sigma) in complete medium at 37° C. for 1 hour and 4° C. for 1 hour as a negative control. Results presented are representative of two independent experiments.

Nc1cccc2c1C(=O)N(C1CCC(=O)NC1=O)C2=O (stereo not shown) [ACTIMID™, 4-(Amino)-2-(2,6-dioxo(3-piperidyl))-isoindoline-1,3-dione]
differentiation into B cells (CD19/CD38 staining) ([1]; FIG. 9): minor suppressive effects | repression of CXCR5 produced by exposure to DMSO ([1]; FIG. 10): overcomes the repression | up-regulation (increased proliferation) of CD34+ cells ([2]; CB2276 and CB2417 cultures): up-regulation | expression of CXCR4 ([2]; FACS analysis of surface proteins): inhibitory effect | yield of cells ([2]; IL-3, KL and G-CSF, compared with the DMSO control): slightly higher number of cells | effect on the proliferation of CD34+ cells ([2]; IL-3, KL and G-CSF, compared with the negative control (none)): do not have a significant effect | CD11b+ Cell Population ([2]; donor CB2276, 0.3 μg/ml): 6.9% | CD34+CD38+ Cell Population ([2]; donor CB2276, 0.3 μg/ml): 0.2 | CD34+CD38− Cell Population ([2]; donor CB2276, 0.3 μg/ml): 5.9 | CD11b+ Cell Population ([2]; donor CB2276, 1 μg/ml): 3.8% | CD34+CD38+ Cell Population ([2]; donor CB2276, 1 μg/ml): 0.2 | CD34+CD38− Cell Population ([2]; donor CB2276, 1 μg/ml): 15.0 | CD11b+ Cell Population ([2]; donor CB2276, 5 μg/ml): 1.6% | CD34+CD38+ Cell Population ([2]; donor CB2276, 5 μg/ml): 0.2 | CD34+CD38− Cell Population ([2]; donor CB2276, 5 μg/ml): 17.3 | CD11b+ Cell Population ([2]; donor CB2417, 0.3 μg/ml): 8.4% | CD34+CD38+ Cell Population ([2]; donor CB2417, 0.3 μg/ml): 0.2 | CD34+CD38− Cell Population ([2]; donor CB2417, 0.3 μg/ml): 5.9 | CD11b+ Cell Population ([2]; donor CB2417, 1 μg/ml): 3.9% | CD34+CD38+ Cell Population ([2]; donor CB2417, 1 μg/ml): 0.8 | CD34+CD38− Cell Population ([2]; donor CB2417, 1 μg/ml): 12.0 | CD11b+ Cell Population ([2]; donor CB2417, 5 μg/ml): 2.5% | CD34+CD38+ Cell Population ([2]; donor CB2417, 5 μg/ml): 0.1 | CD34+CD38− Cell Population ([2]; donor CB2417, 5 μg/ml): 14.7 | CD38 status of the majority of CD34+ and CD34− cells ([2]; treated cell populations): CD38− | level of CD11b expression by mean immunofluorescence (MIF) ([2]; treated cells): decreased | phagocytic capacity at day 12 ([3]; compound from day 1 to day 12): strong decrease | phagocytic capacity at day 12 ([3]; compound from day 6 to day 12): comparable
